From US9546150B2, “Substituted quinazolin-4-ones for inhibiting ubiquitin specific protease 7” (HYBRIGENICS SA, priority 2011, dated 2017)

Assays:
Format in all cases: biochemical
CYLD = molecular target: T1, CYLD (Homo sapiens, UniProt Q9NQC7); experiment: HAUbVS competition assay in HEK293 cell lysates, CYLD; conditions: 12.5-200 μM
T1 sequence (Q9NQC7 1-956): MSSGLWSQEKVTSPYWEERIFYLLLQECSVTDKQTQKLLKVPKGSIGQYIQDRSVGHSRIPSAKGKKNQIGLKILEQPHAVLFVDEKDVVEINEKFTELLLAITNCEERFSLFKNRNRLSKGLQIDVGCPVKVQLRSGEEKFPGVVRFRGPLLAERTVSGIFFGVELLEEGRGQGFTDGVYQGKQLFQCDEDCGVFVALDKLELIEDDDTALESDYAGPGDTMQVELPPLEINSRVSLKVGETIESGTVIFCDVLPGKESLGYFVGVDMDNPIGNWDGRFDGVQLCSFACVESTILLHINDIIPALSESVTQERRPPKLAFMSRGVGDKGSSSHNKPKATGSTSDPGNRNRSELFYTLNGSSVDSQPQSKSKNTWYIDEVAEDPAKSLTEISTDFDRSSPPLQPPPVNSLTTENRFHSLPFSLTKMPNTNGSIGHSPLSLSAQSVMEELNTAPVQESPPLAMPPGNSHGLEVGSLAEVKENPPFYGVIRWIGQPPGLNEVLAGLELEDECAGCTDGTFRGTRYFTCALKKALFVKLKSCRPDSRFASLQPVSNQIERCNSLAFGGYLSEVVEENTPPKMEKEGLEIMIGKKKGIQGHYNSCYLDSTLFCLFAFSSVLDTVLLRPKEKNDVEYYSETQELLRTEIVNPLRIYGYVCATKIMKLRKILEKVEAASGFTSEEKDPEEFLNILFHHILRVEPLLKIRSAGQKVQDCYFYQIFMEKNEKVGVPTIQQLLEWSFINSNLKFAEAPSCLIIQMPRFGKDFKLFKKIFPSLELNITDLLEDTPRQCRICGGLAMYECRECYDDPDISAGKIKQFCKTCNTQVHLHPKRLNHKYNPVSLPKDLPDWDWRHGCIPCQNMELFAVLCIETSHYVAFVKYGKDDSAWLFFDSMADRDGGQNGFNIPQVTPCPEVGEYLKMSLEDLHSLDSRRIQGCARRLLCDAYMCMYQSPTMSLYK

UCH-L3 = molecular target: T2, UCH-L3 (Homo sapiens, UniProt P15374); experiment: HAUbVS competition assay in HEK293 cell lysates, UCH-L3; conditions: 12.5-200 μM
T2 sequence (P15374 1-230): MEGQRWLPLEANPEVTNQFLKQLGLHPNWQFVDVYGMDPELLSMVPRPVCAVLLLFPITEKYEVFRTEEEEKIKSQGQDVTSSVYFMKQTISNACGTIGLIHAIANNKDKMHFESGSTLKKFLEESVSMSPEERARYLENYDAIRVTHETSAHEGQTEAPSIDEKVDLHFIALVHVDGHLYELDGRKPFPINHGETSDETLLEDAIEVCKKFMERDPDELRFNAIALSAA

USP8 = molecular target: T3, USP8 (Homo sapiens, UniProt P40818); experiment: HAUbVS competition assay in HEK293 cell lysates, USP8; set-up: His tag (pFastBac-HT vector); made in house; conditions: 12.5-200 μM
T3 sequence (P40818 1-1118): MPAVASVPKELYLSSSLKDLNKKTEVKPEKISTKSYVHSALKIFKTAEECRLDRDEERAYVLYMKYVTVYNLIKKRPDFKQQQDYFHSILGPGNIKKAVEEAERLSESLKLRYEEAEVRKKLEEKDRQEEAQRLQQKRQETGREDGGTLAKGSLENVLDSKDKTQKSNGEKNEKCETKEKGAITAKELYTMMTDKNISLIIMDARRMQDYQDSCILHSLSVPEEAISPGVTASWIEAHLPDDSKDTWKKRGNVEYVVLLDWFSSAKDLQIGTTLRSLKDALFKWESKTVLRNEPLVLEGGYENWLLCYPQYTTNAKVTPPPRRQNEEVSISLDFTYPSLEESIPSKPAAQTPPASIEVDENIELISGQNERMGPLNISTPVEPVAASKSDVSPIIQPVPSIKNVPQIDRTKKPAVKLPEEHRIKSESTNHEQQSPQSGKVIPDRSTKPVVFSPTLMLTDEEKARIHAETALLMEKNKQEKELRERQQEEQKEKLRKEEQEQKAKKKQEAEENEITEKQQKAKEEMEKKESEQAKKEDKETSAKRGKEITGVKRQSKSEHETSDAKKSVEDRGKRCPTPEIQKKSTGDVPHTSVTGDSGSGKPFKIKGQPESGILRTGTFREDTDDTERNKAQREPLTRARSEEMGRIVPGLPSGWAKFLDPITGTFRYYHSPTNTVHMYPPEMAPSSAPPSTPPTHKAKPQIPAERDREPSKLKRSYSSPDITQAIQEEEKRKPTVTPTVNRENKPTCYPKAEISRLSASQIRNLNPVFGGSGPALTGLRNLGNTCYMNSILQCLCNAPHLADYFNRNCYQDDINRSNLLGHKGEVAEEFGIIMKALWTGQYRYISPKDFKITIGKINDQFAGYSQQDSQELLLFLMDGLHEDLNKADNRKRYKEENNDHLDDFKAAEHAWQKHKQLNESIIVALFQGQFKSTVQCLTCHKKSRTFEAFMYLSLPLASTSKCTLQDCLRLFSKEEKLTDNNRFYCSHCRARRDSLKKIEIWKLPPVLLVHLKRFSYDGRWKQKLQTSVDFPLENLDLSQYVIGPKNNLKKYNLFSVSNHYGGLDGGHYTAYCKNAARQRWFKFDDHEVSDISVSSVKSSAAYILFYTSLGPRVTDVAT
Protocol: The HA-Ub-VS probe (Hemagglutin tag-Ubiquitin-Vinyl Sulfone) was used in this study to directly visualize the activity of all deubiquitinating enzymes from native proteomes.
HEK293 cells were harvested and lysed on ice with a non denaturating buffer containing Tris pH7.4, 50 mM; NaCl, 150 mM; MgCl2, 5 mM; EDTA, 0.5 mM; DTT, 2 mM; ATP (adenosine triphosphate), 2 mM; NP40 (nonyl phenoxypolyethoxylethanol), 0.5% and glycerol, 10%. Samples were incubated at 4° C. for 1 hour and clarified. Proteins were then quantified by Bradford method (Bio-Rad Protein Assay). […] The ubiquitin labeling reaction was initiated by the addition of HA-Ub-VS (8 μg/ml) in labeling buffer (Tris pH7.6, 50 mM; MgCl2, 5 mM; EDTA, 0.5 mM; DTT, 2 mM; ATP, 2 mM; sucrose, 250 mM) and incubated at room temperature for 15 min. Samples were next heated at 100° C. for 10 minutes and briefly sonicated. They were resolved by SDS-polyacrylamide gel electrophoresis (SDS-PAGE), transferred to a nitrocellulose membrane and probed with antibodies against USP7, HA, UCH-L3, CYLD, USP8, USP5, USP10 and Stat3. […] Signals were detected by enhanced chemiluminescence (ECL; Amersham) according to the reagent manufacturer's instructions.

USP7 = USP7 (Homo sapiens, UniProt Q93009); experiment: Reversibility of USP7 inhibition after G50 gel filtration; set-up: Full-length wild-type human USP7 and its catalytic mutant; His tag (pFastBac-HT vector) (N); made in house; host or cells: Spodoptera frugiperda Sf9 (or High Five) insect cells, baculovirus; conditions: 100 μM, 4 h at room temperature, USP7 100 pM
USP7, sequence (Q93009 whole entry): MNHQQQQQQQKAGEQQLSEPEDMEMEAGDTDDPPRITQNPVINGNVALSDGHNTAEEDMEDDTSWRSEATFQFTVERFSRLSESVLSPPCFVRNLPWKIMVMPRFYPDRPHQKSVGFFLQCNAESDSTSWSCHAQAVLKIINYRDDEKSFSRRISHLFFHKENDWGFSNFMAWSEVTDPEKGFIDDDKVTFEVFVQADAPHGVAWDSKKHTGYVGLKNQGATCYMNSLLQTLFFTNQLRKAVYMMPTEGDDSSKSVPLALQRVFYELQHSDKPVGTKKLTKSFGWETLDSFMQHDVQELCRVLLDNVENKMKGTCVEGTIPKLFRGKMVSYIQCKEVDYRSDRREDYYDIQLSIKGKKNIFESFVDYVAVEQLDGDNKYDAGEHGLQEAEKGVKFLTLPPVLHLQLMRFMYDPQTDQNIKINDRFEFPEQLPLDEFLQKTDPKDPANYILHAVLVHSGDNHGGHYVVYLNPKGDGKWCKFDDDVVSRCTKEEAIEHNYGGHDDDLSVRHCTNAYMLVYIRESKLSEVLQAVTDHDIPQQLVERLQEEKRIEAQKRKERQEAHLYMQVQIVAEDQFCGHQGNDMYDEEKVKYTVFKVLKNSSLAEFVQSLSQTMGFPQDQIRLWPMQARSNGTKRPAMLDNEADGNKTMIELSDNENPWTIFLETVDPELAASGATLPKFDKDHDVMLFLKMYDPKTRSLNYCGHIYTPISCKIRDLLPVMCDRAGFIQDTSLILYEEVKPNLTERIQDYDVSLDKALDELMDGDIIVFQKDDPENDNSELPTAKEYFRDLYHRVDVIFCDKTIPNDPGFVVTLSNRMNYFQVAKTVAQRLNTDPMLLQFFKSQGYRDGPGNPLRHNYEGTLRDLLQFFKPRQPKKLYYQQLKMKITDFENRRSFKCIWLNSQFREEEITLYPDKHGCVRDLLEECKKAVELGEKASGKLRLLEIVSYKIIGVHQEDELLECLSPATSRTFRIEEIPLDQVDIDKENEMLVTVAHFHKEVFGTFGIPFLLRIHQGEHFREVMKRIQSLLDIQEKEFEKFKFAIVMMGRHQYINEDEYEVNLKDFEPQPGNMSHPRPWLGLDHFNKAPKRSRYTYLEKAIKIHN
Protocol: The reversibility of inhibition was next determined by measuring the recovery of enzymatic activity after gel filtration. […] We passed some of each sample through a G50 gel filtration system (Sephadex, G50 superfine, Sigma Aldricht). The deubiquitinating activity of the G50 eluates was assessed with the Ub-AMC substrate, as described above, and compared with that of samples not subjected to G50 filtration. The reactions were monitored using the PHERAstar (BMG Labtech).

SMILES | blocking of HAUbVS labeling of CYLD (CYLD) | blocking of HAUbVS labeling of UCH-L3 (UCH-L3) | blocking of HAUbVS labeling of USP8 (USP8) | recovery of USP7 activity after G50 gel filtration (USP7)
CC(Cc1cccs1)C(=O)N1CCC(O)(Cn2cnc3ccccc3c2=O)CC1 (stereo not drawn) [Example 5, 3-({4-hydroxy-1-[2-methyl-3-(thiophen-2-yl)propanoyl]piperidin-4-yl}methyl)-3,4-dihydroquinazolin-4-one] | without any cross-reaction | without any cross-reaction | without any cross-reaction | 
O=C(CCc1ccccc1)N1CCC(O)(Cn2cnc3cc(Cl)ccc3c2=O)CC1 [Example 2, 7-chloro-3-{[4-hydroxy-1-(3-phenylpropanoyl)piperidin-4-yl]methyl}-3,4-dihydroquinazolin-4-one] | without any cross-reaction | without any cross-reaction |  | 
O=C(CCC1CCCC1)N1CCC(O)(Cn2cnc3ccccc3c2=O)CC1 [Example 3, 3-{[1-(3-cyclopentylpropanoyl)-4-hydroxypiperidin-4-yl]methyl}-3,4-dihydroquinazolin-4-one] |  |  |  | total restoration of USP7 activity
